{"source": "patent US20250188123A1", "about": "“PROTEASE INHIBITORS” (Regents of the University of Minnesota, priority 2022, published 2025)", "key": {"Human recombinant Casp6": {"molecular_target": "T1, Human recombinant Casp6 (Homo sapiens, UniProt P55212)", "T1 construct": "purchased BioVision (Milpitas/CA, USA)", "T1 sequence (P55212 24-293)": "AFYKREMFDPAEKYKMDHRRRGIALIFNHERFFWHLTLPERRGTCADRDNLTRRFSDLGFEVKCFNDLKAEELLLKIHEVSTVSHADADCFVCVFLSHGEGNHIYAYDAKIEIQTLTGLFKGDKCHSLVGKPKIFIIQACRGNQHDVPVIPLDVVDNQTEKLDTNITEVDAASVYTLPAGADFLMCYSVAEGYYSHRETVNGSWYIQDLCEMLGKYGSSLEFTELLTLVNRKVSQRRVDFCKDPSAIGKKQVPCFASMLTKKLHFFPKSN", "assay": "In vitro caspase panel assay, Casp6", "assay_type": "biochemical", "conditions": "Casp2 over Casp6, caspase panel", "from_the_text": "Human recombinant Casp1, 6, 7, and 9 were purchased from BioVision (Milpitas/CA, USA). AFC fluorogenic substrates and control peptides (AcYVAD-CHO, AcVDVAD-CHO, AcDEVD-CHO, AcVEID-CHO, and AcLEHD-CHO) were purchased from Bachem (Torrance/CA, USA). The pET23b vector encoding human caspase-3 was a gift of Dr. Michelle Arkin at University of California, San Francisco. Expression and purification of Casp3 was guided by previously described protocols (Denault J-B, Salvesen G S., Current Protocols in Protein Science, 2002, 30(1), 21.13. 1-21.13. 15). Briefly, the plasmid was transformed into E. coli Rosetta 2 pLyss DE3 cells that were cultured at 1 L scale in shake flasks. […] The typical yield for the expression, isolation, and purification was approximately 3 mg/L. The DNA encoding human caspase-2 (hCASP2, amino acids 170-452, free of the N-terminal caspase activation and recruitment domain) open reading frame (ORF) was amplified via polymerase chain reaction (PCR) from full-length hCASP2 cDNA (Origene, Rockville, MD; Cat #SC321316) using following primers: forward, 5′-[…]-3′; reverse, 5′-[…]-3′. […] Proteins were stored in 1× phosphate-buffered saline (pH 7.4) at 10 mg/mL (concentration determined using a BCA assay (Thermo Fisher Scientific)), −80° C. until further use. […]"}, "thrombin": {"molecular_target": "thrombin (Homo sapiens, UniProt P00734)", "assay": "Activity at thrombin proteolytic enzyme", "assay_type": "biochemical"}}, "data": [{"smiles": "Cc1ccc2c(c1)CCN(C(=O)[C@@H](NC(=O)[C@H](CCCC(=O)O)NC(=O)C1Cc3ccccc3N1)C(C)C)[C@@H]2C(=O)N[C@H](C#N)CC(=O)O", "note": "(stereo partly drawn) [Compound 1, (8)-6-(((S)-1-((8)-1-(((S)-2-carboxy-1-cyanoethyl)carbamoyl)-6-methyl-3,4-dihydroisoquinolin-2(1H)-yl)-3-methyl-1-oxobutan-2-yl)amino)-5-((S)-indoline-2-carboxamido)-6-oxohexanoic acid]", "values": [{"measurement": "selective versus Casp6", "setting": "Human recombinant Casp6", "result": "> 2000", "unit": "fold"}, {"measurement": "activity at thrombin", "setting": "thrombin", "result": "weak activity"}]}]}
